Laboratory results from patent US11857544B2, “Composition or method including (t)ew-7197 for treating or preventing corneal endothelial diseases” (THE DOSHISHA, priority 2017, dated 2024).

Key:
PARP = assay: Western blot for PARP in TGF-β-stimulated iFECD; assay type: cell-based, human; settings: 0.1, 1, 10 μM
Protocol: […] were seeded on a 12-well plate at a ratio of 8×10^4 cells per well, and cultured at 37° C. (5% CO2) for 24 hours. DMEM+10% FBS+1% P/S was used as the medium. After 24 hours, the medium was removed. EW-7197 (Selleck Chemicals, 57530) was added so that the final concentration would be 0.1, 1, or 10 μM, and SB431542 (WAKO, 192-16541) was added so that the final concentration would be 10 μM, and the medium was cultured for 24 hours. DMEM+2% FBS+1% P/S was used as the medium. After 24 hours, the medium was removed and cultured […] so that the final concentration of 10 ng/ml of Transforming Growth Factor-132 Human recombinant (WAKO, 200-19911) and […] would be 0.1, 1, and 10 μM, and that of SB431542 would be 10 μM. DMEM+2% FBS+1% P/S was used as the medium. After 24 hours, the cell morphology and apoptosis were observed under a phase contrast microscope. To retrieve floating and dead cells, the medium was retrieved on ice, cells were washed twice with 1×PBS(-) and the solution thereof was also retrieved. The solution was centrifuged for 5 min at 4° C. and 800 g and the supernatant was discarded to obtain a precipitate. […] The detected band intensities were analyzed with Lumino Image Analyzer LAS-4000 mini (Fuji Film) and ImageQuantTM software (GE Healthcare).

fibronectin = assay: Area of fibronectin expression by immunostaining, Col8a2 knock-in mice (Example 5); assay type: in vivo; settings: 0.02% eye drop, 8 weeks
Protocol: 5 μL of 0.02% (about 0.5 mM) EW-7197 eye drop or a base agent (7% DMSO containing PBS) was administered as an eye drop to both eyes of 4-month-old alpha 2 collagen 8 gene (Col8a2) knock-in mice 4 times a day for 8 weeks. The corneal endothelial cell density was measured using a specular microscope KS3M (Konan Medical, Inc.) at before eye drops, and 2, 4, 6, and 8 weeks after eye drops. Mice were euthanized by intraperitoneally administering an excessive amount (200 mg/kg body weight or greater) of anesthetic injection Somnopentyl (Kyoritsu Seiyaku Corporation) 8 weeks after injection. After confirming cardiac arrest, both eye balls were harvested. The harvested eye balls were incised to prepare a corneal fragment. Immunostaining of type I collagen and fibronectin was performed as follows. Image-Pro (Nippon Roper K.K.) was used to analyze the area of type I collagen and fibronectin expression.
After immobilizing a mouse corneal fragment for 10 minutes at room temperature in 4% paraformaldehyde, 0.5% TritonX-100 was added and allowed to permeate for 5 minutes. 1% bovine serum albumin (BSA) was added and the fragment was incubated for 1 hour at room temperature. The corneal fragment was then immersed in a primary antibody solution and reacted overnight at 4° C. […]

## Cc1cccc(-c2[nH]c(CNc3ccccc3F)nc2-c2ccc3ncnn3c2)n1 [EW-7197, N-((4-([1,2,4]triazolo[1,5-a]pyridin-6-yl)-5-(6-methylpyridin-2-yl)-1H-imidazol-2-yl)methyl)-2-fluoroaniline]
PARP
  PARP (about 89 kDa): suppressed to the same degree as the control group without stimulation with TGF-β or 10 μM of SB431542
fibronectin
  area of fibronectin expression compared to the base agent group: decreasing trend
